Reference: patent US5354748A, “Oral antibacterial compositions and method for the improvement of gastrointestinal absorption of penem or carbapenem antibiotics” (Suntory Limited, priority 1991, dated 1994)
Like-named read-outs stand apart in the source and are kept apart here.

Legend:
[1] = Plasma concentration of penem in rats, oral penem with oral cilastatin (Example 5); assay type: in vivo, Sprague-Dawley male rats; conditions: rat; for AUC at 1.5 h / Cmax: plasma, po, 57.1 mg/kg, oral 57.1 mg (titer)/Kg; for Cmax: read-out: Highest concentration in plasma
Procedure: (§1) Seven-week-old Sprague-Dawley male rats were orally administered with 57.1 mg (titer)/Kg of sodium (1'R,2"R,5R,6S)-6-(1'-hydroxyethyl)-2-(2"-tetrahydrofuranyl)penem-3-carboxylate 2.5 hydrate. At the same time, cilastatin was orally administered at 7.17, 0.717 or 0.0717 mg/Kg. The blood was collected during the period of from 0.1 to 1.5 hours after the administration. The concentrations of the free acid of the penem in plasma samples were measured by high performance liquid chromatography (HPLC) to determine the highest concentration in plasma and the area under the plasma concentration:time curve (AUC).

[2] = Plasma concentration of penem in rats, oral penem with oral N-acetyl-L-cysteine (Example 8); assay type: in vivo, Sprague-Dawley male rats; conditions: rat, 57.1 mg/kg, oral 57.1 mg (titer)/Kg
Procedure: Seven-week-old Sprague-Dawley male rats were orally administered with 57.1 mg (titer)/Kg of sodium (1'R,2"R,5R,6S)-6-(1'-hydroxyethyl)-2-(2"-tetrahydrofuranyl)penem-3-carboxylate 2.5 hydrate. At the same time, N-acetyl-L-cysteine was orally administered at 57.1 mg/Kg. The blood was collected during the period of from 0.1 to 2.0 hours after the administration.
The concentrations of the free acid of the penem in plasma samples were measured by high performance liquid chromatography (HPLC) to determine the highest concentration in plasma and the area under the plasma concentration: time curve (AUC).

[3] = Plasma concentration of penem in rats, oral penem with oral glutathione (Example 6); assay type: in vivo, Sprague-Dawley male rats; conditions: rat; for AUC at 2 h / Cmax: plasma, po, 57.1 mg/kg, oral 57.1 mg (titer)/Kg
Procedure: as §1, with “glutathione” for “cilastatin”, “57.1” for “7.17, 0.717”, “5.71” for “0.0717”, “2.0” for “1.5”

in vivo = experiment: in vivo; design: species or system Sprague-Dawley male rats; conditions: rat, plasma, iv, 11.4 mg/kg, intravenous penem 11.4 mg (titer)/Kg
Procedure: The blood was collected during the period of from 0.1 to 1.5 hours after the administration. The concentrations of the free acid of the penem in plasma samples were measured by high performance liquid chromatography (HPLC) to determine the area under the plasma concentration:time curve (AUC).

[4] = Oral absorption of penem in rats with simultaneous administration of cilastatin (Example 3); assay type: in vivo, Sprague-Dawley male rats; conditions: rat; for AUC at 2 h / Cmax / bioavailability: plasma, po, 57.1 mg/kg, oral 57.1 mg (titer)/Kg; for bioavailability: read-out: Absorption (Oral Absorption Percentage A)
Procedure: Those compositions were separately and orally administered to seven-week-old, Sprague-Dawley male rats to give a dose of 57.1 mg (titer)/Kg in terms of the penem carboxylate. The blood was drawn from the femoral artery via a polyethylene catheter over 2.0 hours after the administration.

[5] = Plasma concentration and urinary excretion of penem in dogs, capsules with glutathione (Example 7); assay type: in vivo; conditions: dog; for AUC at 4 h / Cmax: plasma; for AUC at 4 h / Cmax / dose excreted at 24 h: po, 75 mg, oral capsule 75 mg (titer); for dose excreted at 24 h: urine, read-out: Excretion into urine
[6] = as above; assay type: in vivo; conditions: dog, po, 75 mg; for AUC at 4 h / Cmax: plasma
Procedure: Namely, the penemcarboxylate and glutathione were mixed in amounts of 75 mg (titer) and 75, 15 or 3.75 mg, respectively, per capsule. The resultant mixed powder was filled in a capsule. Capsules were prepared in the manner described above.

[7] = single administration (penem alone)
[8] = single administration (penem alone), read-out: Highest concentration in plasma
[9] = penem:glutathione molar ratio 11:1
[10] = penem:glutathione molar ratio 11:1, read-out: Highest concentration in plasma

Structure (SMILES): C[C@@H](O)[C@H]1C(=O)N2C(C(=O)O)=C([C@H]3CCCO3)S[C@H]12 [sodium (1'R,2"R,5R,6S)-6-(1'-hydroxyethyl)-2-(2"-tetrahydrofuranyl)penem-3-carboxylate 2.5 hydrate]
- Increase of AUC relative to single administration ([1]; oral, at each cilastatin dosage (7.17, 0.717, 0.0717 mg/Kg)): 2.8-4.8 times
- AUC at 1.5 h ([1]; cilastatin 0 (penem alone)): 4420 ng·h/mL
- Cmax ([1]; cilastatin 0 (penem alone)): 4810 ng/mL
- AUC at 1.5 h ([1]; cilastatin 0.0717 mg/Kg oral): 12200 ng·h/mL
- Cmax ([1]; cilastatin 0.0717 mg/Kg oral): 6890 ng/mL
- AUC at 1.5 h ([1]; cilastatin 0.717 mg/Kg oral): 21100 ng·h/mL
- Cmax ([1]; cilastatin 0.717 mg/Kg oral): 8680 ng/mL
- AUC at 1.5 h ([1]; cilastatin 7.17 mg/Kg oral): 19600 ng·h/mL
- Cmax ([1]; cilastatin 7.17 mg/Kg oral): 12700 ng/mL
- AUC at 2 h ([2]; penem:N-acetyl-L-cysteine molar ratio 0.6:1): 5240 ng·h/mL
- Cmax ([2]; penem:N-acetyl-L-cysteine molar ratio 0.6:1, read-out: Highest concentration in plasma): 6790 ng/mL
- AUC at 2 h [2, 7]: 2520 ng·h/mL
- Cmax [2, 8]: 3290 ng/mL
- Increase of AUC relative to penem alone ([3]; oral, glutathione 1/11 of the penem): 1.2 times
- AUC at 2 h ([3]; penem:glutathione molar ratio 1.1:1): 6160 ng·h/mL
- Cmax ([3]; penem:glutathione molar ratio 1.1:1, read-out: Highest concentration in plasma): 5840 ng/mL
- AUC at 2 h [3, 9]: 5540 ng·h/mL
- Cmax [3, 10]: 5030 ng/mL
- AUC at 2 h [3, 7]: 4570 ng·h/mL
- Cmax [3, 8]: 4340 ng/mL
- AUC at 1.5 h (in vivo; cilastatin 0 (penem alone)): 7170 ng·h/mL
- AUC at 1.5 h (in vivo; cilastatin 0.0717 mg/Kg oral): 6860 ng·h/mL
- AUC at 1.5 h (in vivo; cilastatin 0.717 mg/Kg oral): 5670 ng·h/mL
- AUC at 1.5 h (in vivo; cilastatin 7.17 mg/Kg oral): 6740 ng·h/mL
- Increase of oral absorption percentage relative to single administration ([4]; oral, cilastatin 1/2000 of the penem carboxylate): 2.5 times
- AUC at 2 h ([4]; penem:cilastatin molar ratio 1:1): 25900 ng·h/mL
- Cmax ([4]; penem:cilastatin molar ratio 1:1, read-out: Highest concentration in plasma): 12400 ng/mL
- bioavailability ([4]; penem:cilastatin molar ratio 1:1, vs AUCiv): 114%
- AUC at 2 h ([4]; penem:cilastatin molar ratio 10:1): 19600 ng·h/mL
- Cmax ([4]; penem:cilastatin molar ratio 10:1, read-out: Highest concentration in plasma): 12700 ng/mL
- bioavailability ([4]; penem:cilastatin molar ratio 10:1, vs AUCiv): 86.3%
- AUC at 2 h ([4]; penem:cilastatin molar ratio 100:1): 21100 ng·h/mL
- Cmax ([4]; penem:cilastatin molar ratio 100:1, read-out: Highest concentration in plasma): 8680 ng/mL
- bioavailability ([4]; penem:cilastatin molar ratio 100:1, vs AUCiv): 93%
- AUC at 2 h ([4]; penem:cilastatin molar ratio 300:1): 18300 ng·h/mL
- Cmax ([4]; penem:cilastatin molar ratio 300:1, read-out: Highest concentration in plasma): 7890 ng/mL
- bioavailability ([4]; penem:cilastatin molar ratio 300:1, vs AUCiv): 80.3%
- AUC at 2 h ([4]; penem:cilastatin molar ratio 600:1): 14900 ng·h/mL
- Cmax ([4]; penem:cilastatin molar ratio 600:1, read-out: Highest concentration in plasma): 8080 ng/mL
- bioavailability ([4]; penem:cilastatin molar ratio 600:1, vs AUCiv): 65.6%
- AUC at 2 h ([4]; penem:cilastatin molar ratio 1000:1): 12200 ng·h/mL
- Cmax ([4]; penem:cilastatin molar ratio 1000:1, read-out: Highest concentration in plasma): 6890 ng/mL
- bioavailability ([4]; penem:cilastatin molar ratio 1000:1, vs AUCiv): 53.7%
- AUC at 2 h ([4]; penem:cilastatin molar ratio 2000:1): 10900 ng·h/mL
- Cmax ([4]; penem:cilastatin molar ratio 2000:1, read-out: Highest concentration in plasma): 7690 ng/mL
- bioavailability ([4]; penem:cilastatin molar ratio 2000:1, vs AUCiv): 48.1%
- AUC at 2 h [4, 7]: 4420 ng·h/mL
- Cmax [4, 8]: 4810 ng/mL
- bioavailability ([4]; single administration (penem alone), vs AUCiv): 19.4%
- Increase of AUC relative to single administration ([5]; oral, glutathione 1/110 of the penemcarboxylate): 1.2 times
- AUC at 4 h [5, 9]: 25400 ng·h/mL
- Cmax [5, 10]: 18000 ng/mL
- AUC at 4 h ([5]; penem:glutathione molar ratio 110:1): 21900 ng·h/mL
- Cmax ([5]; penem:glutathione molar ratio 110:1, read-out: Highest concentration in plasma): 14700 ng/mL
- dose excreted at 24 h ([5]; penem:glutathione molar ratio 11:1, up to 24 hours): 20.7%
- dose excreted at 24 h ([5]; penem:glutathione molar ratio 110:1, up to 24 hours): 19.9%
- AUC at 4 h ([6]; oral capsule 75 mg (titer), penem:glutathione molar ratio 1.1:1): 33700 ng·h/mL
- Cmax ([6]; oral capsule 75 mg (titer), penem:glutathione molar ratio 1.1:1, read-out: Highest concentration in plasma): 22700 ng/mL
- Cmax ([6]; oral, single administration (penem alone), read-out: Highest concentration in plasma): 11600 ng/mL
- AUC at 4 h [6, 7]: 17700 ng·h/mL
- dose excreted at 24 h ([6]; urine, oral, single administration (penem alone), up to 24 hours, read-out: Excretion into urine): 16.7%
